We go through five compounds from patent publication US6596900B2, “Fused bicyclic or tricyclic amino acids” (Pfizer Inc, priority 2001, dated 2003).

In general, melting point refers to the temperature of the solid-liquid transition.

Data set [1] concerns the target T1, α2δ subunit derived from porcine brain tissue (Sus scrofa, UniProt A0A287BIN3).
T1 construct: the α2δ subunit derived from porcine brain tissue; from tissue; host or cells: porcine brain tissue
As to conditions: [3H]gabapentin radioligand; compounds of WO0128978 (prior application); cited from earlier work.

Data set [2] has as its target T1, α2δ subunit derived from porcine brain tissue. Kind of data set: radioligand binding assay using [3H]gabapentin and the α2δ subunit. The settings on record: [3H]gabapentin radioligand binding assay described herein. The text has this: wherein n is an integer of from 1 to 4, where there are stereocentres, each center may be independently R or S, preferred compounds being those of Formulae I-IV above in which n is an integer of from 2 to 4. The compounds are disclosed as being useful in treating a variety of disorders including epilepsy, faintness attacks, hypokinesia, cranial disorders, neurodegenerative disorders, depression, anxiety, panic, pain, neuropathological disorders, and sleep disorders. Certain of the compounds disclosed in that patent have high activity as measured in a radioligand binding assay using [^3H]gabapentin and the α2δ subunit derived from porcine brain tissue (Gee N. S., Brown J. P., Dissanayake V. U. K., Offord J., Thurlow R., Woodruff G. N., J. Biol. Chem., 1996;271:[…]). Results for some of the compounds are set out in the following table:
The biological activity of the compounds of the invention may be measured in a radioligand binding assay using [^3H]gabapentin and the α2δ subunit derived from porcine brain tissue (Gee N. S., Brown J. P., Dissanayake V. U. K., Offord J., Thurlow R., Woodruff G. N., ADVANCEADVANCE J. Biol. Chem., 1996;271:5879-[…]). Results may be expressed in terms of μM or nM α2δ binding affinity.

Each structure is given as a SMILES string.

T1 sequence (A0A287BIN3 entry or part of it): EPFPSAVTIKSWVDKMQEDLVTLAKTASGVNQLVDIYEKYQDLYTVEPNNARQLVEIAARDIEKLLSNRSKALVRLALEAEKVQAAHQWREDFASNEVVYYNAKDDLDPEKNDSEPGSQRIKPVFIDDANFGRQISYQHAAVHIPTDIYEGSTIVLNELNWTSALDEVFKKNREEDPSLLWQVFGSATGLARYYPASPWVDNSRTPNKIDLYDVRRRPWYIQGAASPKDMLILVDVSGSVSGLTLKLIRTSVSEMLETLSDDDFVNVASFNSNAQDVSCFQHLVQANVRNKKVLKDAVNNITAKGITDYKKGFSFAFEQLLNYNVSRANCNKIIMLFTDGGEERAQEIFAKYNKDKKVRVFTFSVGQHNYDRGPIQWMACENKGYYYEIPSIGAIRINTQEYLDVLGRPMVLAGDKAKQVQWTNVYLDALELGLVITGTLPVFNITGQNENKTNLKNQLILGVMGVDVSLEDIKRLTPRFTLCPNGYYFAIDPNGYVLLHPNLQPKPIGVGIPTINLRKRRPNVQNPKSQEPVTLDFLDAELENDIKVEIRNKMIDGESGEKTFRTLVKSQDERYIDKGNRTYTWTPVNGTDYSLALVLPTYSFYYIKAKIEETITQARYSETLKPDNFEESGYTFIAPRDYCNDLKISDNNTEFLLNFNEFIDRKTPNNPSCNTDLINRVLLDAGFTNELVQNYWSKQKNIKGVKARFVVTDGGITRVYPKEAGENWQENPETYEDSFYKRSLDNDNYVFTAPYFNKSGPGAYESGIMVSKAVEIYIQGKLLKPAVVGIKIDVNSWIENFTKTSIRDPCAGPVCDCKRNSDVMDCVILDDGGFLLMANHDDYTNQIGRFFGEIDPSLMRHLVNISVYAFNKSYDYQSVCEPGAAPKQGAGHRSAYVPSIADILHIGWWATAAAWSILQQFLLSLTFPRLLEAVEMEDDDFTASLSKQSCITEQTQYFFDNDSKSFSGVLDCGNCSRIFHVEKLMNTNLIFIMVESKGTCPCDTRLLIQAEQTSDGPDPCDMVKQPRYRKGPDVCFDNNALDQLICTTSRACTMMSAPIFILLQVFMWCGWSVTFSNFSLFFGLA

With `NCC1(CC(=O)O)C[C@H]2CC[C@@H]2C1` (racemic) [(+/−)-(1α, 5β)(3-Aminomethyl-bicyclo[3.2.0]hept-3-yl)-acetic acid], the α2δ binding affinity in data set [1] was 2.86 µM.

Turning to `NC[C@]1(CC(=O)O)C[C@H]2CC[C@H]2C1` [(1α, 3α, 5α)(3-Aminomethyl-bicyclo[3.2.0]hept-3-yl)-acetic acid], the α2δ binding affinity in data set [1] is 0.038 µM.

In the case of `NC[C@@]1(CC(=O)O)C[C@H]2CC[C@H]2C1` [((1α, 3β, 5α)(3-Aminomethyl-bicyclo[3.2.0]hept-3-yl)-acetic acid], the α2δ binding affinity in data set [1] is 0.332 µM. The compound `Cl.NC[C@]1(CC(=O)O)C[C@H]2CCC[C@H]21` [Example 1, [(1R,5R,6S)-6-(Aminomethyl)bicyclo[3.2.0]hept-6-yl]acetic acid hydrochloride] showed a melting point of 198 °C. The binding affinities in data set [2] was 46.8 nM. Consider `Cl.NC[C@]1(CC(=O)O)C[C@H]2CCCC[C@H]21` [Example 4, [(1R,6R,7S)-7-(Aminomethyl)bicyclo[4.2.0]oct-7-yl]acetic acid hydrochloride], for which, in data set [2], the binding affinities is reported as 600 nM.
